The text below walks through data of paper PMC5697638, “Identification of a Potent Phosphoinositide 3‐Kinase Pan Inhibitor Displaying a Strategic Carboxylic Acid Group and Development of Its Prodrugs” (Chemmedchem, 2017).

In one series the test system is PC3 cells. In words: PC3 cell proliferation (MTT). Details: key to Cell proliferation: active: Active: able to reduce proliferation to an extent greater than 50 %; inactive: able to reduce proliferation to an extent less than 50 %. It is filed as cell-based. The procedure:
The biological activity of each prodrug was tested by analyzing their ability to decrease PC3 proliferation as a rapid test to evaluate the PI3Ks inhibitory activity after hydrolysis in a cell‐based assay. […] The choice of using such a cut‐off was due to the intent to identify rapidly which prodrug could be hydrolyzed in the assay to release the active compound. As expected, a good correlation between rate of hydrolysis and cellular activity was observed, and esters 64–68 and 70–73 were determined to be good candidates for topical use. We decided to focus our attention on ester 64, as its half‐life was a good compromise for a prodrug. The EC50 value of this ester was then evaluated on PC3 cells, and a value of (2.3±0.8) μM was obtained.
Cell proliferation: PC3 cell proliferation was measured with a 3‐(4,5‐dimethyl thiazol‐2‐yl)‐2,5‐diphenyltetrazolium bromide (MTT)‐based colorimetric assay (#11 465 007 001 Roche Diagnostic GmbH, Germany). PC3 cells were seeded in a 96‐well plate at a concentration of 10^4 cells mL^−1. PC3 cells were treated for 72 h with increasing concentrations of 64, and MTT was added. After ON solubilization of the MTT metabolite, formazan, the absorbance (λ=550–600 nm absorbance, with a reference wavelength of 650 nm) of each well was read in a multi‐well reader (Glomax multi detection system, Promega, model number 9301‐010). The percentage of proliferating cells was calculated by relating each absolute value to the control intended as PC3 cells treated with DMSO alone. An IC50 value was then derived by plotting all data on a dose–response curve (Graph Pad software) by using nonlinear regression fit (equation [log agonist] versus response).

Series [1] can be described thus: stability in mouse plasma. It is filed as in vitro ADME. Particulars: mouse, mouse plasma, 50 μM substrate, 30 min incubation, 37 °C; read-out: Mouse plasma t 1/2. The procedure:
Twelve esters were prepared (see the Experimental Section for their synthesis and the Supporting Information for chromatographic methods) and evaluated in terms of metabolic stability. For this task, a combined approach based on microsomal and plasmatic stability assays was exploited considering the relevance of the plasmatic and hepatic tissues in esterase activity. Microsomal stability of the selected esters was evaluated by monitoring the disappearance of the substrate incubated in rat liver microsomes (RLM) at 50 μM concentration, in the presence of NADPH. In Table 4, the percentage of the remaining substrate, after incubation (t=60 min), with respect to the initial amount is reported. Overall, the compounds underwent a relevant metabolic transformation, and the substrate depletion ranged from 0 (for 76) to 100 % (for 70). This is mainly due to hydrolysis of the ester function, whereas the metabolites arising from the oxidation catalyzed by the NADPH‐dependent monooxygenase system were negligible from a quantitative point of view. Indeed, the main metabolite formed during the incubation of the esters was corresponding carboxyl derivative 37. […] Moreover, whereas CH2‐pyridin‐4‐yl ester 70 was completely metabolized, corresponding benzyl derivative 65 and piperonyl derivative 72 were more hydrolytically stable, and their residual substrates were 53 and 83 %, respectively. The hydrolytic stability of the selected esters was also evaluated by monitoring the depletion of the substrate incubated at a 50 μM concentration in mouse plasma over a period of 30 min. As expected, the plasmatic metabolic fate of the esters was characterized by the formation of 37 as the only metabolite (see Figure S4). The rate constant k [min^−1], derived for the substrate peak area versus time curve (single‐exponential decay equation—GraphPad Prism software, Inc., San Diego, CA (USA); see Figure S5) was used to calculate the in vitro half‐life t 1/2 [min], and the values are reported in Table 4. […]
Stability of PI3K inhibitors in mouse plasma
An aliquot of 460 µL of blank plasma spiked with substrate (50 µM, final concentration, DMSO 5%) was incubated at 37 °C for 30 minutes. Aliquots (70 µL) of the incubation took at 0-2-5-10-20, and 30 minutes were diluted with 140 µL of acetonitrile, homogenized, and centrifuged at 13,000 rpm for five minutes. Supernatants (20 µL) were injected onto HPLC.
A Shimadzu HPLC system (Shimadzu, Kyoto, Japan), consisting of two LC-10AD Vp module pumps, an SLC-10A Vp system controller, an SIL-10AD Vp autosampler, and a DGU-14-A on-line degasser was used for the analysis. All the chromatographic separations were performed on a Phenomenex Luna C18 5µm (150 x 4.6 mm i.d.) (Phenomenex srl, Castel Bolognese, Italy) as a stationary phase protected by a Luna C18 SecurityGuard (Phenomenex srl). The SPD-M10Avp photodiode array detector was used to detect the analyte at 254 nm. LC Solution 1.24 software was used to process the chromatograms. Aliquots (20 µL) of supernatants obtained from incubations were injected onto the HPLC system and eluted with a mobile phase (flow rate: 1 mL/min) consisting of solvent A- 0.5% aqueous formic acid solution and solvent B- acetonitrile/methanol 80:20.
The eluants were filtered through a 0.45-µm pore size polyvinylidene difluoride membrane […]
The following gradients programs were used: […]

With `COC(=O)c1cccc(Cn2cc(-c3cccc4c(=O)cc(N5CCOCC5)[nH]c34)nn2)c1` [Compound 64, Methyl 3‐{[4‐(2‐morpholino‐4‐oxo‐1,4‐dihydroquinolin‐8‐yl)‐1H‐1,2,3‐triazol‐1‐yl]methyl}benzoate], the “effect on proliferation of PC3 cells” value with PC3 cells (72 h of treatment) was “dose‐dependently decreased proliferation”. Further, the half-maximal effective concentration (EC50) with PC3 cells (Homo sapiens, PC-3, PC3 proliferation, MTT, 72 h) was 2300 ± 800 nM. Besides, the Cell proliferation entry in the series with PC3 cells (PC3 cells, 10 μM of each prodrug) is “active”. Also, the half-life at 50 µM in series [1] came to 13.3 min.
